Values belong to the compound of their own block, whether it stands above or below them.
Legend:
in vitro = conditions: PAMPA, pH 7.4
Protocol: The reference compounds, well-permeable caffeine and low-permeable norfloxacin were obtained from Sigma-Aldrich (St. Louis, MO, USA). Used for this study, pre-coated PAMPA Plate System Gentest™ was provided by Corning (Tewksbury, MA, USA). The system consisted of 96-well receiver filter plate pre-coated with structured layers of phospholipids and a donor microplate. The assay was performed as described previously. […] After 5 h of incubation at RT° the UPLC-MS spectrometry (Waters ACQUITY™ TQD system with the TQ Detector, Waters, Milford, MA, USA) method was used to estimate the quantity of compounds that penetrated from donor to acceptor wells. The permeability coefficients (Pe, cm/s) were calculated using the formulas provided by Corning.

mice fed high fat diet = system: mice fed high fat diet; set-up: method as in PMID 15833055, PMID 15447739; conditions: mice fed high fat diet ref 4, 16; cited from earlier work
female Wistar rats = experiment: Visceral illness via kaolin intake (pica behavior); format: in vivo; conditions: single i.p., 24 h; vs vehicle control
Protocol: The method was based on the works by Takeda et al. and Yamamoto et al. with minor modification. The experiment lasted for five days. In addition to free access to feed, animals had also free access to a white kaolin. For the first few days, the animals were accustomed to the presence of kaolin in their cages. […] Moreover, animals were weighed before the compounds administration and 24 h after.

rat = conditions: i.p., no reference given; cited from earlier work
laboratory animals = system: laboratory animals; set-up: method as in PMID 33261900; conditions: laboratory animals ref 12; cited from earlier work

Compound: Cn1c(=O)c2c(ncn2C)n(C)c1=O [CFN, caffeine]
Papp at 5 h, 200 µM (in vitro): 12.2 ± 0.94 ×10⁻⁶ cm/s

Compound: CN(C)[C@@H]1CCN(CCCOc2ccc(-c3ccc(C#N)cc3)cc2)C1 [Compound A-331440]
body weight (mice fed high fat diet): caused weight loss | insulin tolerance (mice fed high fat diet): normalized insulin tolerance | leptin levels (mice fed high fat diet): lowered leptin levels

Compound: O=S(=O)([O-])[O-].[Cu+2] [CuSO4, reference compound]
calorie intake (pica model) (female Wistar rats): reduced caloric intake | water intake (pica model) (female Wistar rats): drank less water | LD50 (rat): 18 mg/kg

Compound: N#Cc1ccc(-c2ccc(OCCCN3CCN(c4ccncc4)CC3)cc2)cc1 [KSK-94]
kcal intake (laboratory animals): reduced kcal intake | plasma triglyceride and total cholesterol levels (laboratory animals): lowering plasma triglyceride and total cholesterol levels | weight gain (laboratory animals): strongly prevented weight gain

Papp at 5 h, 200 µM (in vitro): 0.056 ± 0.01 ×10⁻⁶ cm/s
Compound: CCn1cc(C(=O)O)c(=O)c2cc(F)c(N3CCNCC3)cc21 [NFX, norfloxacin]
